Measured values as given in patent publication US6361758B1, “Cosolvent formulations” (Abbott Laboratories, priority 1998, dated 2002).

Experiments:
[1] = Stability of paracalcin in a cosolvent formulation; type: physicochemical; settings: 5 μg/ml in 20% ethanol/30% propylene glycol/50% water
Procedure: Samples of paracalcin (5 μg/ml) in 20% ethanol/30% propylene glycol/50% water were prepared for stability testing. In an appropriate vessel, water for injection to approximately 30% of final volume is added. Propylene glycol is added to the vessel with mixing. In a separate container, the specified amount of paracalcin is dissolved in a portion of the ethanol (190 proof non-beverage), which is obtained from the total volume of ethanol specified for the batch, and added to the vessel with mixing. An additional aliquot of the batch ethanol is used to rinse the container and the rinsing solution is added to the vessel with mixing. The remaining alcohol is added to the vessel with mixing. Q.s. with water for injection to final volume and mix for approximately 30 minutes. The solution is filtered through a 0.45 micron membrane and dispensed into ampuls. Each ampul is flame sealed and autoclaved to F016.
One set of ampuls are tested (T=0) for percent paracalcin remaining in solution and served as control (i.e., 100% remaining). A second set of ampuls are stored at 40° C. and tested at 1, 2, and 3 months. A final set are stored at 30° C. and tested at 1, 2, 3, 6, 9, 12, 18, and 24 months. The results are shown in Table 2 as paracalcin remaining as a percent of control (T=0). Each time point represents 1 to 5 data points.

[2] = Solubility of paracalcin in a cosolvent system; type: physicochemical; settings: 25° C.
Procedure: An adequate amount of paracalcin was weighed and added to 10 ml of cosolvent contained in a 10 ml stoppered glass test tube. Two samples were prepared for each cosolvent composition. The test tubes containing samples were shaken in a 25° C. reciprocal shaking water bath at 100 rpm. Upon complete dissolution, an aliquot was filtered through a 0.45 micron syringe filter and the filtrate diluted 1:1 with 50% methanol. The resulting diluted material was measured for the content of paracalcin.

[3] = system: Staphylococcus aureus, Escherichia coli, Pseudomonas aeruginosa, Candida albicans, Aspergillus niger; experiment: USP 23 preservative effectiveness test; type: cell-based; settings: added to the 20% ethanol/30% PG formulation; data not shown
Source text: Solutions of 20% ethanol, 30% propylene glycol, 20% ethanol/30% PG, 30ethanol/20% PG, and 40% ethanol/10% PG were passed through a 0.45 micro filter and tested by the USP 23 preservative effectiveness test as described in United States Pharmacopoeia 23-NF 18, 1995 Ed., Chapter 51, page 1681, which is incorporated herein by reference. Briefly, this involves inoculating the test solution with 10^5 to 10^6 test organisms per milliliter and then determining the number of surviving organisms after 7, 14, 21, and 28 days incubation at 20-25° C. using standard microbiological methods. Day 0 data is not required by USP 23 but was included in this study. A filtration and wash method was used to remove the inactivating agents for purposes of recovering the microorganisms, but other equivalent agents can also be validated for use. The USP test organisms include the bacteria Staphylococcus aureus, Escherichia coli, and Pseudomonas aeruginosa, a yeast (Candida albicans), and a mold (Aspergillus niger). […] The yeast and mold must not increase from the initial inoculum level. The initial inoculum level can either be calculated by knowing the stock culture concentration or by using a buffer control instead of the test solution.

paracalcin remaining as a percent of control (T=0) ([1]; 30° C., 0 months (Initial), autoclaved ampuls): 100% of control
paracalcin remaining as a percent of control (T=0) ([1]; 30° C., 1 month): 96% of control
paracalcin remaining as a percent of control (T=0) ([1]; 30° C., 2 months): 96% of control
paracalcin remaining as a percent of control (T=0) ([1]; 30° C., 3 months): 97% of control
paracalcin remaining as a percent of control (T=0) ([1]; 30° C., 6 months): 96% of control
paracalcin remaining as a percent of control (T=0) ([1]; 30° C., 9 months): 97% of control
paracalcin remaining as a percent of control (T=0) ([1]; 30° C., 12 months): 100% of control
paracalcin remaining as a percent of control (T=0) ([1]; 30° C., 18 months): 97% of control
paracalcin remaining as a percent of control (T=0) ([1]; 30° C., 24 months): 96% of control
paracalcin remaining as a percent of control (T=0) ([1]; 40° C., 0 months (Initial), autoclaved ampuls): 100% of control
paracalcin remaining as a percent of control (T=0) ([1]; 40° C., 1 month): 96% of control
paracalcin remaining as a percent of control (T=0) ([1]; 40° C., 2 months): 96% of control
paracalcin remaining as a percent of control (T=0) ([1]; 40° C., 3 months): 98% of control
Paracalcin concentration in cosolvent (solubility) ([2]; Ethanol 0.00, Propylene glycol 0.302, Water 0.698): 0.58 µg/mL
Paracalcin concentration in cosolvent (solubility) ([2]; Ethanol 0.00, Propylene glycol 0.506, Water 0.494): 14.21 µg/mL
Paracalcin concentration in cosolvent (solubility) ([2]; Ethanol 0.100, Propylene glycol 0.257, Water 0.643): 2.88 µg/mL
Paracalcin concentration in cosolvent (solubility) ([2]; Ethanol 0.199, Propylene glycol 0.207, Water 0.594): 15.94 µg/mL
Paracalcin concentration in cosolvent (solubility) ([2]; Ethanol 0.201, Propylene glycol 0.308, Water 0.491): 72.90 µg/mL
Paracalcin concentration in cosolvent (solubility) ([2]; Ethanol 0.299, Propylene glycol 0.00, Water 0.701): 6.82 µg/mL
Paracalcin concentration in cosolvent (solubility) ([2]; Ethanol 0.347, Propylene glycol 0.102, Water 0.551): 119.37 µg/mL
Paracalcin concentration in cosolvent (solubility) ([2]; Ethanol 0.498, Propylene glycol 0.00, Water 0.502): 601.63 µg/mL
SMILES: C[C@H](/C=C/[C@H](C)C(C)(C)O)[C@H]1CC[C@H]2/C(=C/C=C3C[C@@H](O)C[C@H](O)C3)CCC[C@]12C [paracalcin, 19-nor-1α,3β,25-trihydroxy-9,10-secoergosta-5,7(E),22(E)-triene]
effect of addition of paracalcin on the preservative effect of the formulation [3]: no effect
